Measured values: patent US6709676B2, “Extended release oral dosage composition” (Schering Corporation, priority 1999, dated 2004)

System: allergic bronchospasm and cough
Assay: in vivo studies of allergic bronchospasm and cough

SMILES: Clc1ccc2c(c1)CCc1cccnc1C2=C1CCNCC1 [desloratadine, Desloratadine]
- effect on allergic bronchospasm and cough: inhibitory effect
